Assay results: patent US4535075A, “Dithiolane derivative, process for producing the same and use thereof” (Nihon Nohyaku Co., Ltd., priority 1982, dated 1985)
Values after ≈ are worked out from the molar mass of the structure shown. Like-named read-outs stand apart in the source and are kept apart here.

How the values were obtained:
[1] = test system: liver damage induced by carbon tetrachloride; test: Protective (Controlling) effect on liver damage induced by carbon tetrachloride; type: in vivo, mice (dd strain); settings: 250 mg/kg p.o., CCl4 0.05 ml/kg after 6 h, 24 h; for p-GPT: CCl4 alone >2,100; for Liver Damage Index: average of 5 mice, 0 Normal, 2 Slightly recognized, 4 Clearly observable damage, 6 Heavy damage, CCl4 alone 5.0
Source text: Protective (Controlling) Effect on liver damage induced by carbon tetrachloride.
Carbon tetrachloride administration induces centrilobular necrosis of the liver associated with loss of diphosphopyridine nucleotide, hepatic glycogen, coenzyme A and increase in neutral fat. Release of several enzymes from the hepatocytes, and increases of enzyme activities in the plasma are recognized as the result of the damage of the liver.
A suitable means for evaluating the degree induced by carbon tetrachloride or the degree of protection afforded by drugs is to study the plasma glutamic-pyruvic transaminase (p-GPT) activity. […]
After 6 hours, carbon tetrachloride was administered orally 0.05 ml/kg.
Animals were killed 24 hours after carbon tetrachloride administration, and the liver was grossly observed.
The plasma was obtained by centrifugation. Activity of p-GPT were determined by the method of Reitman and Frankel and expressed in Karmen units.
Score for liver damage index was as follows:
1 Each figure indicated average of 5 mice.

[2] = test system: liver damage induced by α-naphthyl isothiocyanate (ANIT); test: Protective effect on liver damage induced by ANIT (Method 1); type: in vivo, mice; settings: 2 x 250 mg/kg p.o., ANIT 35 mg/kg p.o., 24 h
Source text: (§1) Protective effect on liver damage induced by α-naphthyl isothiocyanate (referred to as "ANIT", hereinafter).
It is well known that experimental cholestasis is accomplished by administration with ANIT in mice and rats, and studied as a cholestasis model in human being.
ANIT and CCl4 induce necrosis in the liver. ANIT causes it as small focci in perilobular parenchyna and CCl4 causes centrilobular parenchymal coagulation necrosis.
From these information, the elevation of plasma GPT activity in these models are thought to have defferent characteristics.
Test compounds, dissolved or suspended in olive oil or diethyleneglycol, were orally administered 2 times at intervals of 3 hrs to mice at the dose of 250 mg/kg. At 3 hrs after the second administration with test compounds, ANIT was administered orally at 35 mg/kg.
Mice were sacrificed at 24 hrs after ANIT administration and blood samples were collected. The blood samples were centrifuged and plasma was obtained.
Plasma GPT activity and alkaline phosphatase activity were determined by Reitman & Frankel's method and Bessey-Lowry's method, respectively. The activity was expressed with Karmen Unit and Bessey-Lowry Unit, respectively.

[3] = test system: fatty liver induced by carbon tetrachloride; test: Protective effect on fatty liver (carbon tetrachloride); type: in vivo, rats (SD strain); settings: percentage of mean value in carbon tetrachloride alone group, 100 mg/kg/day p.o. for 4 days, control 32.0
Experimental: Carbon tetrachloride also induces fatty liver. Carbon tetrachloride is generally considered to damage microsome and thereby to inhibit protein synthesis and induce fatty liver.
Carbon tetrachloride was subcutaneously administered to 5-6 week-old male rats (SD strain) for 4 days at the dose of 0.5 ml/kg/day.
Simultaneously, the compound of the present invention was orally administered to the rats for 4 days at the dose of 30 mg/kg/day or 100 mg/kg/day.
On the 5th day, the rats were sacrificed by exsanguination.
The controlling (protective) effect was evaluated by determining the content of triglyceride in the liver.
Triglyceride was determined colorimetrically by chromotropic acid method.
Each value represented the percentage of mean value in carbon tetrachloride alone group.

[4] = acute oral toxicity (LD50); settings: in vivo, male rat
Experimental: The compounds represented by the general formula (I) are low in toxicity to mammals.
Their acute oral toxicities to male rat expressed as LD50 values are shown below.
For example, the LD50 values of the compound No. 1, No. 2, No. 3, No. 8 and No. 12 are 1,000-3,000 mg/kg, 3,000-5,000 mg/kg, more than 5,000 mg/kg, more than 5,000 mg/kg and 1,000-3,000 mg/kg, respectively.

water solubility = type: physicochemical
[5] = test system: liver damage induced by α-naphthyl isothiocyanate (ANIT); test: Protective effect on liver damage induced by ANIT (Method 2); type: in vivo, mice (dd strain); settings: 250 mg/kg p.o., ANIT 35 mg/kg p.o. after 6 h, 24 h
Experimental: as §1
Test compounds, dissolved or suspended in olive oil or diethyleneglycol, were orally administered at the dose of 250 mg/kg to the mice (Six or Seven-week-old male mice-dd strain).
After 6 hours, ANIT dissolved in olive oil, was aministered orally at 35 mg/kg.
Mice were sacrificed at 24 hours after ANIT administration and blood samples were collected. The blood samples were centrifuged and plasma was obtained.
Plasma GPT activity and alkaline phosphatase activity were determined by Reitman & Frankel's method and Bessey-Lowry's method, respectively.
The activity was expressed with Karmen Unit and Bessey-Lowry Unit, respectively.

[6] = Table 3-1, control 3.3, ANIT alone 5.3
[7] = Table 3-1, control 7.4, ANIT alone 324.0
[8] = Table 3-3, control 2.9, ANIT alone >9.6
[9] = Table 3-3, control 17.5, ANIT alone >460.2
[10] = Table 3-4, control 3.7, ANIT alone 4.5
[11] = Table 3-4, control 11.3, ANIT alone 300.3

Row | SMILES | p-GPT [1] | Liver Damage Index [1] | Triglyceride [3] | LD50 [4] | Alkaline phosphatase activity [2, 6] | p-GPT [2, 7] | Alkaline phosphatase activity [5, 8] | p-GPT [5, 9] | other results
1 | CC(C)COC(=O)C(C(=O)OCC(C)C)=C1SC(O)C(O)S1 (centres unmarked) [Compound 5] | 135 Karmen units | 0.0 | 40.0% | – | – | – | – | – | Alkaline phosphatase activity ([2]; Table 3-2, ANIT alone 5.3): 3.5 B-L.V.; p-GPT ([2]; Table 3-2, ANIT alone >653.7): 134.8 K.U.
2 | CCOC(=O)C(C(=O)OCC)=C1SC(O)C(O)S1 (centres unmarked) [Compound 2, diethyl 4,5-dihydroxy-1,3-dithiolan-2-ylidenemalonate] | 15 Karmen units | 0.0 | 46.6% | 3000 to 5000 mg/kg | 4.4 B-L.V. | 28.0 K.U. | – | – | –
3 | CCCOC(=O)C(C(=O)OCCC)=C1SC(O)C(O)S1 (centres unmarked) [Compound 3] | 12 Karmen units | 0.2 | 39.0% | > 5000 mg/kg | 4.7 B-L.V. | 53.0 K.U. | – | – | –
4 | C=CCOC(=O)C(C(=O)OCC=C)=C1SC(O)C(O)S1 (centres unmarked) [Compound 12, diallyl 4,5-dihydroxy-1,3-dithiolan-2-ylidenemalonate] | 63 Karmen units | 1.0 | 35.4% | 1000 to 3000 mg/kg | 4.9 B-L.V. | 19.9 K.U. | – | – | solubility (water solubility; water): 2200 µg/mL (≈ 6.91 mM)
5 | CCCCCOC(=O)C(C(=O)OCCCCC)=C1SC(O)C(O)S1 (centres unmarked) [Compound 8] | 21 Karmen units | 0.0 | – | > 5000 mg/kg | 4.3 B-L.V. | 56.0 K.U. | – | – | –
6 | COCCOC(=O)C(C(C)=O)=C1SC(O)C(O)S1 (centres unmarked) [Compound 47] | 25 Karmen units | 0.2 | – | – | – | – | 4.2 B-L.V. | 40.1 K.U. | –
7 | CCCC(=O)C(C(=O)OCC)=C1SC(O)C(O)S1 (centres unmarked) [Compound 50] | 75 Karmen units | 1.2 | – | – | – | – | – | – | Alkaline phosphatase activity [5, 10]: 3.0 B-L.V.; p-GPT [5, 11]: 18.5 K.U.
8 | CCCCC(=O)C(C(=O)OCC)=C1SC(O)C(O)S1 (centres unmarked) [Compound 52] | 25 Karmen units | 0.4 | – | – | – | – | – | – | Alkaline phosphatase activity [5, 10]: 3.8 B-L.V.; p-GPT [5, 11]: 24.1 K.U.
9 | CCCOC(=O)C(C(C)=O)=C1SC(O)C(O)S1 (centres unmarked) [Compound 36] | 30 Karmen units | 0.2 | – | – | – | – | 3.9 B-L.V. | 60.0 K.U. | –
10 | CC(=O)C(C(=O)OC(C)C)=C1SC(O)C(O)S1 (centres unmarked) [Compound 37, isopropyl 4,5-dihydroxy-1,3-dithiolan-2-ylideneacetoacetate] | 149 Karmen units | 0.4 | – | – | – | – | 4.4 B-L.V. | 177.4 K.U. | –
11 | CC(C)OC(=O)C(C(=O)OC(C)C)=C1SC(O)C(O)S1 (centres unmarked) [Compound 23, diisopropyl 4,5-dihydroxy-1,3-dithiolan-2-ylidenemalonate] | 22.5 Karmen units | 0.0 | – | – | 4.0 B-L.V. | 76.0 K.U. | – | – | solubility (water solubility; in water at 20° C., read-out: water solubility): 2000 µg/mL (≈ 6.2 mM)
12 | COC(=O)C(C(=O)OC)=C1SC(O)C(O)S1 (centres unmarked) [Compound 1] | 23 Karmen units | 0.0 | 57.5% | 1000 to 3000 mg/kg | 3.9 B-L.V. | 128.0 K.U. | – | – | solubility (water solubility; 2% gum arabic aqueous solution, in 2% gum-arabia aqueous solution, read-out: solubility): 20000 µg/mL (≈ 75.1 mM)
13 | CC(=O)C(C(=O)OC(C)(C)C)=C1SC(O)C(O)S1 (centres unmarked) [Compound 41] | 105 Karmen units | 0.6 | – | – | – | – | 6.0 B-L.V. | 132.7 K.U. | –
14 | CCOC(=O)C(C(C)=O)=C1SC(O)C(O)S1 (centres unmarked) [Compound 35] | 92 Karmen units | 0.0 | – | – | – | – | 4.6 B-L.V. | > 245.0 K.U. | –
15 | CCCCOC(=O)C(C(C)=O)=C1SC(O)C(O)S1 (centres unmarked) [Compound 38] | 31 Karmen units | 0.0 | – | – | – | – | 5.3 B-L.V. | 29.4 K.U. | –
16 | CC(=O)C(C(=O)OC1CCCCC1)=C1SC(O)C(O)S1 (centres unmarked) [Compound 44] | 73 Karmen units | 0.4 | – | – | – | – | 5.1 B-L.V. | 140.2 K.U. | –
